From patent US9708251B2, “Unsaturated fatty alcohol alkoxylates from natural oil metathesis” (Stepan Company, priority 2012, dated 2017)
Blank lines part the entries; values can stand above or below the molecule they belong to.

Experiments:
Assay type in all cases: physicochemical
[1] = Emulsion stability testing of nonionic emulsifiers, aromatic solvent series; set-up: key to 24 h separation, appearance / 1 h separation, appearance / 1 h separation, amount: C = creamy; CO = creamy oil; O = oil; GC = gritty cream; NS = no separation; OC = oily cream; key to Spon. (spontaneity): G = good; F = fair; P = poor
Experimental: (§1) Nonionic samples contain a low amount of water (<1%) and are prepared as emulsifiable concentrates with three pesticides using two different solvent systems. In the aromatic solvent series, the nonionic sample replaces Toximul® 8240 (castor oil ethoxylate, 36 POE, Stepan), and in the Hallcomid™ (N,N-dimethylcaprylamide/N,N-dimethylcapramide, Stepan) solvent series, the nonionic sample replaces Ninex® MT-630F.
Sample preparation: Ninate® 60E (calcium alkylbenzenesulfonate, Stepan) and the test sample are stirred until homogeneous. […] Controls 1-3 are made by using Toximul 8240 in the amounts indicated instead of the nonionic sample.
Formulations: • 1. Bifenthrin, 240 g/L (2.99 g), Aromatic 100 (ExxonMobil, 8.05 g), Ninate 60E (0.38 g), and nonionic sample or Toximul 8240 (0.58 g). • 2. 2,4-D ester, 480 g/L (8.90 g), Exxsol® D-110 (ExxonMobil, 2.50 g), Ninate 60E (0.36 g), and nonionic sample or Toximul 8240 (0.24 g). • 3. Tebuconazole, 360 g/L (4.45 g), N-methyl-2-pyrrolidone (6.35 g), Ninate 60E (0.48 g), nonionic sample or Toximul 8240 (0.72 g).
(§2) Emulsion Stability Testing
(§3) A Mohr pipette is used to feed pesticide/surfactant concentrates to each cylinder.

[2] = Emulsion stability testing of nonionic emulsifiers, Hallcomid solvent series; set-up: key to 24 h separation, appearance / 1 h separation, appearance / 1 h separation, amount: C = creamy; CO = creamy oil; O = oil; GC = gritty cream; NS = no separation; OC = oily cream; key to Spon. (spontaneity): G = good; F = fair; P = poor
Experimental: as §1
(§4) Hallcomid Solvent Series.
(§5) Sample preparation: The surfactants are combined and stirred until homogeneous, with the nonionic sample melted if needed prior to combination. Controls 1-3 are made by using Ninex MT-630F in the amounts indicated instead of the nonionic sample.
as §2, §3

[3] = Agrichemical solvent analysis: active solubility; conditions: room temperature
Experimental: Solvency strength of potential agrichemical solvents is evaluated by identifying the solubility level of three standard pesticides in the solvent by weight percent: 2,4-D acid, imidacloprid, and tebuconazole. […] The active material is also accurately weighed before addition. Initial amounts of active material are approximately: 2,4-D: 0.3 g; imidacloprid: 0.02 g; tebuconazole: 0.3 g. Solvent and pesticide active are combined, allowed to mix for 1 h at room temperature, and then inspected for the presence of undissolved active material. Additional active material is added in appropriately small increments until it no longer dissolves completely. This mixture is then stirred for 24 h at room temperature, and if the active has completely dissolved, additional active ingredient is added and the mixture is stirred another 24 h at room temperature. The percent solubility is recorded, and performance is compared with that of a standard agricultural solvent.

[4] = Surfactant phase behavior study (cross-polarized microscopy); conditions: room temperature
Experimental: Phase behavior is observed using an Olympus BH-2 cross-polarized microscope at 100-400× and room temperature (20° C. to 22° C.). The inventive monounsaturated alcohol ethoxylates are compared with their saturated analogs.
Samples are prepared by diluting the most concentrated product gradually with deionized water. When the surfactant concentration approaches a phase transition, the concentration is varied at 2-4% intervals to estimate the phase boundary. The actives level reported in Table 4 for each phase boundary is within ±5% of the true boundary.
Samples are loaded between a microscope slide and cover glass and are allowed to equilibrate before observation. Microscopic texture is analyzed and used to determine the phase. For some samples, an AR 2000 rheometer (TA Instruments) is used to measure viscosity at 25° C. to further verify phase behavior.

[5] = Emulsion stability testing of nonionic emulsifiers, Hallcomid solvent series; set-up: key: C = creamy; CO = creamy oil; O = oil; GC = gritty cream; NS = no separation; OC = oily cream; conditions: Bifenthrin 240 g/L in Hallcomid M-8-10, 34 ppm water
Experimental: as §1, §4, §5, §2, §3

[6] = Fabric cleaning: compaction (surfactant blends)
Experimental: The sample is formulated into surfactant blends having high actives content. Two experimental derivatives, A12-13 and A12-21, are evaluated.
In a first experiment, a three-component surfactant blend is prepared. This blend comprises the experimental sample (30 wt. %), a linear alkylbenzene sulfonate (15 wt. %), and an alkyl ether sulfate (15 wt. %). The appearance and viscosity of the blend are compared with those of similar three-component blends in which a standard alcohol ethoxylate replaces the experimental sample.
In a second experiment, a two-component surfactant blend is prepared in which the experimental sample and a linear alkylbenzene sulfonate are combined at a 1:1 actives ratio, beginning with a high actives blend having a cloudy appearance. Water is gradually added and mixed with the surfactant blend at room temperature. […]

[7] = Solubility evaluation: enhanced oil recovery (EOR); conditions: for Comments (appearance) / Soluble?: 1 wt. % sample, 1% sodium chloride brine
Experimental: Samples are prepared in a 10% stock solution and evaluated at 1 wt. % with a brine concentration of 1% sodium chloride. Replicate experiments are performed at each temperature with each sample.

[8] = 2,4-D ester 480 g/L in Exxsol D-110, 34 ppm water
[9] = 2,4-D ester 480 g/L in Exxsol D-110, 1000 ppm water
[10] = Bifenthrin 240 g/L in Aromatic 100, 34 ppm water
[11] = Bifenthrin 240 g/L in Aromatic 100, 1000 ppm water
[12] = Tebuconazole 360 g/L in N-methyl-2-pyrrolidone, 34 ppm water
[13] = Tebuconazole 360 g/L in N-methyl-2-pyrrolidone, 1000 ppm water
[14] = 2,4-D diester 480 g/L in Hallcomid M-8-10, 34 ppm water
[15] = 2,4-D diester 480 g/L in Hallcomid M-8-10, 1000 ppm water
[16] = Bifenthrin 240 g/L in Hallcomid M-8-10, 34 ppm water
[17] = Bifenthrin 240 g/L in Hallcomid M-8-10, 1000 ppm water
[18] = Tebuconazole 360 g/L in Hallcomid M-8-10, 34 ppm water
[19] = Tebuconazole 360 g/L in Hallcomid M-8-10, 1000 ppm water
[20] = three-component blend: sample 30 wt. %, linear alkylbenzene sulfonate 15 wt. %, alkyl ether sulfate 15 wt. %

1 h separation, amount [1, 8]: 1.5 mL | 1 h separation, appearance [1, 8]: CO | 24 h separation, amount [1, 8]: 4.1 mL | 24 h separation, appearance [1, 8]: C | Spon. (spontaneity) [1, 8]: F | 1 h separation, amount [1, 9]: 4 mL | 1 h separation, appearance [1, 9]: CO | 24 h separation, amount [1, 9]: 1 O, 4 CO | Spon. (spontaneity) [1, 9]: P | 1 h separation, amount [1, 10]: NS | 24 h separation, amount [1, 10]: 3.5 mL | 24 h separation, appearance [1, 10]: C | Spon. (spontaneity) [1, 10]: F | 1 h separation, amount [1, 11]: 3 O, 5 CO | 24 h separation, amount [1, 11]: 4.5 O, 1 CO | Spon. (spontaneity) [1, 11]: F | 1 h separation, amount [1, 12]: 2 mL | 1 h separation, appearance [1, 12]: CO | 24 h separation, amount [1, 12]: 2.5 mL | 24 h separation, appearance [1, 12]: CO | Spon. (spontaneity) [1, 12]: P | 1 h separation, amount [1, 13]: 2.5 mL | 1 h separation, appearance [1, 13]: CO | 24 h separation, amount [1, 13]: 3 mL | 24 h separation, appearance [1, 13]: CO | Spon. (spontaneity) [1, 13]: P | 1 h separation, amount [2, 14]: 5 mL | 1 h separation, appearance [2, 14]: C | 24 h separation, amount [2, 14]: 9.9 mL | 24 h separation, appearance [2, 14]: C | Spon. (spontaneity) [2, 14]: F | 1 h separation, amount [2, 15]: 6 mL | 1 h separation, appearance [2, 15]: C | 24 h separation, amount [2, 15]: 8 mL | 24 h separation, appearance [2, 15]: C | Spon. (spontaneity) [2, 15]: F | 1 h separation, amount [2, 16]: NS | Spon. (spontaneity) [2, 16]: G | 1 h separation, amount [2, 17]: 6.5 mL | 1 h separation, appearance [2, 17]: CO | 24 h separation, amount [2, 17]: 4 O, 2 CO | Spon. (spontaneity) [2, 17]: F | 1 h separation, amount [2, 18]: 2 mL | 1 h separation, appearance [2, 18]: C | 24 h separation, amount [2, 18]: 5 mL | 24 h separation, appearance [2, 18]: C | Spon. (spontaneity) [2, 18]: F | 1 h separation, amount [2, 19]: 3.5 mL | 1 h separation, appearance [2, 19]: C | 24 h separation, amount [2, 19]: 2 CO, 5 C | Spon. (spontaneity) [2, 19]: F | solubility of 2,4-D Acid in the solvent [3]: 29.8 weight percent | solubility of Imidacloprid in the solvent [3]: 2.8 weight percent | solubility of Tebuconazole in the solvent [3]: 13.0 weight percent | Isotropic Clear phase region ([4]; in deionized water): 0-100 % Actives Level | 24 h separation, amount [5]: NS
Compound: C=CCCCCCCCCOCCOCCOCCOCCOCCO [A10-10]

Appearance, 25° C. [6, 20]: cloudy, flowable gel | Viscosity [6, 20]: 5600 cPs | % Actives at which blend is clear and homogeneous at 25° C. ([6]; two-component blend with linear alkylbenzene sulfonate, 1:1 actives ratio): 51 % Actives
Compound: CCC=CCCCCCCCCOCCOCCOCCOCCOCCOCCOCCOCCOCCO (mixture of isomers) [A12-21]

1 h separation, amount [1, 8]: 4 mL | 1 h separation, appearance [1, 8]: CO | 24 h separation, amount [1, 8]: 1 O, 4.5 CO | Spon. (spontaneity) [1, 8]: P | 1 h separation, amount [1, 9]: 4 mL | 1 h separation, appearance [1, 9]: O | 24 h separation, amount [1, 9]: 4 mL | 24 h separation, appearance [1, 9]: O | Spon. (spontaneity) [1, 9]: P | 1 h separation, amount [1, 10]: 7 mL | 1 h separation, appearance [1, 10]: CO | 24 h separation, amount [1, 10]: 6.5 mL | 24 h separation, appearance [1, 10]: CO | Spon. (spontaneity) [1, 10]: P | 1 h separation, amount [1, 11]: 6 mL | 1 h separation, appearance [1, 11]: O | 24 h separation, amount [1, 11]: 5 mL | 24 h separation, appearance [1, 11]: O | Spon. (spontaneity) [1, 11]: P | 1 h separation, amount [1, 12]: 2 mL | 1 h separation, appearance [1, 12]: GC | 24 h separation, amount [1, 12]: 3 mL | 24 h separation, appearance [1, 12]: GC | Spon. (spontaneity) [1, 12]: P | 1 h separation, amount [1, 13]: 2.5 mL | 1 h separation, appearance [1, 13]: GC | 24 h separation, amount [1, 13]: 3 mL | 24 h separation, appearance [1, 13]: GC | Spon. (spontaneity) [1, 13]: P | 1 h separation, amount [2, 14]: 5.6 mL | 1 h separation, appearance [2, 14]: C | 24 h separation, amount [2, 14]: 10 mL | 24 h separation, appearance [2, 14]: C | Spon. (spontaneity) [2, 14]: F | 1 h separation, amount [2, 15]: 6 mL | 1 h separation, appearance [2, 15]: C | 24 h separation, amount [2, 15]: 7.5 mL | 24 h separation, appearance [2, 15]: C | Spon. (spontaneity) [2, 15]: F | 1 h separation, amount [2, 16]: NS | Spon. (spontaneity) [2, 16]: F | 1 h separation, amount [2, 17]: 10 mL | 1 h separation, appearance [2, 17]: CO | 24 h separation, amount [2, 17]: 3 O, 3 CO | Spon. (spontaneity) [2, 17]: P | 1 h separation, amount [2, 18]: 2.5 mL | 1 h separation, appearance [2, 18]: C | 24 h separation, amount [2, 18]: 5 mL | 24 h separation, appearance [2, 18]: C | Spon. (spontaneity) [2, 18]: F | 1 h separation, amount [2, 19]: 3 mL | 1 h separation, appearance [2, 19]: C | 24 h separation, amount [2, 19]: 5 mL | 24 h separation, appearance [2, 19]: C | Spon. (spontaneity) [2, 19]: F | solubility of 2,4-D Acid in the solvent [3]: 29.5 weight percent | solubility of Imidacloprid in the solvent [3]: 2.9 weight percent | solubility of Tebuconazole in the solvent [3]: 13.5 weight percent | combined isotropic phases (clear and opaque), share of the total [4]: about 50% | Isotropic Clear phase region ([4]; in deionized water): 70-100 % Actives Level | Isotropic Opaque phase region ([4]; in deionized water): 0-20 % Actives Level | Lamellar phase region ([4]; in deionized water): 20-70 % Actives Level | Comments (appearance) ([7]; 20.7 °C): white, opaque | Soluble? ([7]; 20.7 °C): no | Comments (appearance) ([7]; 51.5 °C): white, opaque | Soluble? ([7]; 51.5 °C): no | Comments (appearance) ([7]; 56.1 °C): white, hazy | Soluble? ([7]; 56.1 °C): no | 24 h separation, amount [5]: NS
Compound: C=CCCCCCCCCOCCOCCOCCO [A10-7]
Overall performance (EOR solubility) ([7]; versus control fatty alcohol ethoxylate): Overall performance of A10-7: Equal to control
